Where two headings read alike, the source gives them in different places.
What was measured:
human P-gp = target: T1, human P-gp (Homo sapiens, UniProt P08183); experiment: P-gp assay in transfected LLC-PK1 cells; type: in vitro ADME; details: read-out: P-gp transporter ER human
T1 construct: expressed in transfected cells; host or cells: LLC-PK1 (porcine kidney epithelial) cells
Experimental: (§1) The general permeability of the compound was assessed using the parallel artificial membrane permeability (PAMPA) assay and the permeability-glycoprotein (P-gp) assay was used to specifically test for brain penetration. PAMPA data were generated as previously reported by our group.[44] The P-gp assay, which evaluates the brain penetration of test compounds, was performed as described elsewhere.[45] Briefly, transfected porcine kidney epithelial (LLC-PK1) cells expressing human or mouse P-gp were cultured on 96-well semipermeable filter membrane plates (Millipore, Darmstadt, Germany). Cells formed a polarized monolayer with tight junctions that acted as a barrier between apical and basolateral compartments. P-gp was expressed in the apical-facing membrane of the monolayer (tightness confirmed using Lucifer yellow). […] The effect of P-gp was measured by expressing the efflux ratio of the unidirectional A > B and B > A Papp values. The mean permeability (A > B and B > A Papp) was determined in the absence of P-gp via the addition of the selective P-gp inhibitor, tariquidar.

mouse P-gp = target: T2, mouse P-gp (Mus musculus, UniProt P21447); experiment: P-gp assay in transfected LLC-PK1 cells; type: in vitro ADME; details: read-out: P-gp transporter ER mouse
T2 construct: expressed in transfected cells; host or cells: LLC-PK1 (porcine kidney epithelial) cells
Experimental: as §1

[1] = Hepatocyte clearance assay; type: in vitro ADME
Experimental: The hepatocyte clearance assay was performed as previously described.[39] For mice hepatocytes, the suspension cultures were either freshly prepared by liver perfusion or prepared from cryopreserved hepatocyte batches (pooled C57BL6 mouse hepatocytes were purchased from BioreclamationIVT (NY, USA)). For human hepatocytes, commercially available, pooled (5–20 donors), cryopreserved samples from nontransplantable liver tissues were used. For the suspension cultures, Nunc U96 PP-0.5 mL (Nunc Natural, 267245) plates were used, which were incubated in a Thermo Forma incubator from Fischer Scientific (Wohlen, Switzerland) equipped with shakers from Variomag Teleshake (Sterico, Wangen, Switzerland) for maintaining cell dispersion. The cell culture medium was William’s media supplemented with glutamine, antibiotics (100 IU/mL Penicillin-Streptomycin, Gibco), insulin, dexamethasone, and 10% fetal calf serum (FCS). Incubations of a test compound at 1 μM test concentration in suspension cultures of 1 × 10^6 cells mL^–1 (∼1 μg μL^–1 protein concentration) were performed in 96-well plates and shaken at 900 rpm for up to 2 h in a 5% CO2 atmosphere at 37 °C. After 3, 6, 10, 20, 40, 60, and 120 min, a 100 μL cell suspension in each well was quenched with 200 μL methanol containing an internal standard. Samples were then cooled and centrifuged before analysis by LC-MS/MS. […]

P-gp = experiment: Brain penetration study with/without P-gp inhibitor tariquidar; type: in vivo, male C57/BL6 mice; details: male, C57/BL6, mouse, with tariquidar 5 mg kg^–1 i.v. bolus, 30 min prior to RNB-61
Experimental: To characterize the pharmacokinetic behavior of RNB-61, studies in rodents were conducted at the in vivo facility of F. Hoffmann-La Roche Ltd. (Basel, Switzerland). The plasma-concentration time profile was studied in rodents after single-dose RNB-61 administration by oral gavage (p.o. microsuspension excipients 7.5% gelatin/0.62% NaCl) and intravenous bolus injection (i.v. solution, excipients NMP:NaCl (30:70)). Three groups of male Wistar rats (n = 2 per group) were administered RNB-61 either at 1 mg kg^–1 i.v., 3 mg kg^–1 p.o., or 26 mg kg^–1 p.o. Plasma samples were drawn at 0.083, 0.25, 0.5, 1, 2, 4, 8, and 24 postdose in the i.v. group and at 0.25, 0.5, 0.75, 1.5, 3, 5, 8, and 24 h postdose in the p.o. groups. The samples were analyzed for RNB-61 concentration by LC/MS-MS. For the LC/MS-MS analysis, and the samples were prepared by adding 100 uL to 400 uL ACN with ISTD (100 ng/mL Bosantan in ACN/MeOH 1/1), stirring, and centrifuging (4000 rpm, 65’). 100 uL of the supernatant were pipetted and diluted with 400 μL H2O at pH 3. The analytes were separated on a Restek C18 column (5 μm, 1.0 × 3 mm). The mobile phase consisted of water containing 0.1% HCOOH as solvent A and ACN containing 0.1% HCOOH as solvent B. The gradient curve starting with 5% B was changed to 90% B between 0.4 and 0.6 min and further increased to 95% B between 0.6 and 1.2 min. This was maintained until 1.4 min and then reduced and kept at 5% B between 1.45 and 2.0 min. The mass spectrometer was operated in the positive mode. All LC-MS/MS was done using the Agilent RapidFire Analyzer software (version 4.3). The pharmacokinetic parameters were estimated by noncompartmental analysis in the Certara WinNonlin software (version 5.3). A similar study design was run in mice with three groups receiving 2 mg kg^–1 i.v., 4 mg kg^–1 p.o., or 26 mg kg^–1 p.o., and plasma sampling occurring in a composite profile (n = 2 for each time point) up to 7 or 24 h postdose. Male C57/BL6 mice (n = 5 per group) were used to study the influence of P-gp efflux on brain penetration. Two groups of mice were administered RNB-61 by i.v. bolus injection at 1 mg kg^–1 (2 groups). In order to block P-gp activity, an i.v. bolus of 5 mg kg^–1 tariquidar[46] was injected into one group 30 min prior to RNB-61. Plasma was collected at 0.083, 0.25, 0.5, 2, 4, and 7 h postdose in a composite profile. Brain, CSF, and vitreous body were collected at terminal time points 0.5, 2, 4, and 7 h postdose.

T1 sequence (P08183 whole entry): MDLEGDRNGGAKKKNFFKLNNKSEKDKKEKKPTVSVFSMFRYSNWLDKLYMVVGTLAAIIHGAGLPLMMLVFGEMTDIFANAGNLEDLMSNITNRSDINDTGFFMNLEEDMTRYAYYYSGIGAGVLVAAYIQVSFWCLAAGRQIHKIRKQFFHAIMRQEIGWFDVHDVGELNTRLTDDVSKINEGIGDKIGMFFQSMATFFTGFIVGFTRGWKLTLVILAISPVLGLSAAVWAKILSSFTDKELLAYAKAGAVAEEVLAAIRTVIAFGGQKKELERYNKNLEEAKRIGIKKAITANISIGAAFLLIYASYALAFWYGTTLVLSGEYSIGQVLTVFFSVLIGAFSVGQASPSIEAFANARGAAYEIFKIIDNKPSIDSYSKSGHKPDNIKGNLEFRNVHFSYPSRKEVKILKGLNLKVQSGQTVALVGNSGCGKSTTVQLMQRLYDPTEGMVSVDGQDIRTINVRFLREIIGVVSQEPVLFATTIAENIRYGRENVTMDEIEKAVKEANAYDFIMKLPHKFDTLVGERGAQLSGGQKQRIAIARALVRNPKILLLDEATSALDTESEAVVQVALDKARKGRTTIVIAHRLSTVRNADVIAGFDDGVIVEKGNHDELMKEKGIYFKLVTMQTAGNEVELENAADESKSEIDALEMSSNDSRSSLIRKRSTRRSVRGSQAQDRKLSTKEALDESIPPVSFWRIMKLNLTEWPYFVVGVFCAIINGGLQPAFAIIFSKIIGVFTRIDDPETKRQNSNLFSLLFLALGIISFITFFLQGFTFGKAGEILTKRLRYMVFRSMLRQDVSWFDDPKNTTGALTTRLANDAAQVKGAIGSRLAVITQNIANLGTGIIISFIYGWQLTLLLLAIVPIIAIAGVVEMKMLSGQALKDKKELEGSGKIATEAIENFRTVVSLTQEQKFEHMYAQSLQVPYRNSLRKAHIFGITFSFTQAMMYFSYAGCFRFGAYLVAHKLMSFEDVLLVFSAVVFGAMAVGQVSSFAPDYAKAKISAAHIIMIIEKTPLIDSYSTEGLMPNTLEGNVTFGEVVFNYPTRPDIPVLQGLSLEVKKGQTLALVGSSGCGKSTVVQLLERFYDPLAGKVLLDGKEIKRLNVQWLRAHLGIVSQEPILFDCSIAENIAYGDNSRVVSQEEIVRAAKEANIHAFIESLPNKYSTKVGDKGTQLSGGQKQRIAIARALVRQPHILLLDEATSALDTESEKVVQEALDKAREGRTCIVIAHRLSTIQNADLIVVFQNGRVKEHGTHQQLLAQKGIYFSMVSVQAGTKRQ
T2 sequence (P21447 whole entry): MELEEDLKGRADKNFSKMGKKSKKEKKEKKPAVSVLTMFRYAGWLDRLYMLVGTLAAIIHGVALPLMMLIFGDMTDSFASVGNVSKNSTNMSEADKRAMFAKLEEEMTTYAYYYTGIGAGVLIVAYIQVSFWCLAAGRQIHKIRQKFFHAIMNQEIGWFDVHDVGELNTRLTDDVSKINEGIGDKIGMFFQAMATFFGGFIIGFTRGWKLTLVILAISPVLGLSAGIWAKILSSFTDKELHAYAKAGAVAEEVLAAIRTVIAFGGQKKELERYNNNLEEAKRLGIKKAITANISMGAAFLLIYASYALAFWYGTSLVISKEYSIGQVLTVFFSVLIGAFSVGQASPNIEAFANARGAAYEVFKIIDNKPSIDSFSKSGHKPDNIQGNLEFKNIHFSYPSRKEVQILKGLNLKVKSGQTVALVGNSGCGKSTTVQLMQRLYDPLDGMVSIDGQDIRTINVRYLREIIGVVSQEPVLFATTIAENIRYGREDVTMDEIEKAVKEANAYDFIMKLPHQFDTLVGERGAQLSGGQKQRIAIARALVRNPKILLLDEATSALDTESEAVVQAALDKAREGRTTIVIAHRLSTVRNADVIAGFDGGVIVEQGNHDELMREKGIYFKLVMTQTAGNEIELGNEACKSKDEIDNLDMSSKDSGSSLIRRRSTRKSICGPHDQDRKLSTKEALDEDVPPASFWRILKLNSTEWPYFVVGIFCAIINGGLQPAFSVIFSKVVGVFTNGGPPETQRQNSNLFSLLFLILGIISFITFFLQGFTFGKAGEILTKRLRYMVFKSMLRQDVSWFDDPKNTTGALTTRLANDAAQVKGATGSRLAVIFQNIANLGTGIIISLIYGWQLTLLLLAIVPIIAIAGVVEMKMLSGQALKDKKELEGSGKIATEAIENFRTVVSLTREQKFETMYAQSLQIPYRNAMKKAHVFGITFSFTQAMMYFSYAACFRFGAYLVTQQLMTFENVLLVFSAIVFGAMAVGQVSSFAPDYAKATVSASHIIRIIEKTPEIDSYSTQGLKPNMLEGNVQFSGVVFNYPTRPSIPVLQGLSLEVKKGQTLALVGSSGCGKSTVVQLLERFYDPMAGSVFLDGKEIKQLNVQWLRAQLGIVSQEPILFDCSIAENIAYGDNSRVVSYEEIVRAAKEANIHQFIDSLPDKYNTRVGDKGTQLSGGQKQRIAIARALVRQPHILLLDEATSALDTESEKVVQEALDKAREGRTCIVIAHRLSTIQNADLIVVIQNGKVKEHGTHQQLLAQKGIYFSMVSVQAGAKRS

Cn1c(C(C)(C)C)cc(=NC(=O)c2cc(C(F)(F)F)ccc2OCC(C)(C)O)n1CC1CCC1 [RNB-61]
efflux ratio at 3 h (human P-gp): 40.6
efflux ratio at 3 h (mouse P-gp): 26.8
hepatocyte CLint at 1 μM ([1]; C57BL6, mouse): 48.5 µL/min/1e6 cells
hepatocyte CLint at 1 μM ([1]; human, pooled cryopreserved human hepatocytes in suspension culture): 85 µL/min/1e6 cells
half-life (P-gp; brain, iv, RNB-61 1 mg kg^–1 i.v. + tariquidar 5 mg kg^–1 i.v., read-out: brain T1/2 (converted)): 8.42 h
Tmax (P-gp; brain, iv, RNB-61 1 mg kg^–1 i.v. + tariquidar 5 mg kg^–1 i.v., read-out: brain Tmax): 0.53 h
Kp (P-gp; intravenous, ratio of AUClast in brain and plasma, + tariquidar 5 mg kg^–1, read-out: brain-plasma partition coefficient Kp): 0.747
Cmax (P-gp; plasma, iv, RNB-61 1 mg kg^–1 i.v. + tariquidar 5 mg kg^–1 i.v.): 737 ng/mL
AUC(0-inf) (P-gp; plasma, iv, RNB-61 1 mg kg^–1 i.v. + tariquidar 5 mg kg^–1 i.v., read-out: plasma AUCinf): 3560 ng·h/mL
AUC(0-t) (P-gp; plasma, iv, RNB-61 1 mg kg^–1 i.v. + tariquidar 5 mg kg^–1 i.v., read-out: plasma AUClast): 2510 ng·h/mL
clearance (P-gp; plasma, iv, RNB-61 1 mg kg^–1 i.v. + tariquidar 5 mg kg^–1 i.v., read-out: plasma CL (converted)): 4.68 mL/min/kg
half-life (P-gp; plasma, iv, RNB-61 1 mg kg^–1 i.v. + tariquidar 5 mg kg^–1 i.v., read-out: plasma T1/2 (converted)): 3.68 h
Tmax (P-gp; plasma, iv, RNB-61 1 mg kg^–1 i.v. + tariquidar 5 mg kg^–1 i.v., read-out: plasma Tmax): 0.083 h

Reference: PMC11320734 (ACS Pharmacology & Translational Science, 2024)
